Data from patent US12145947B2, “Pyrimidine based modulators and uses thereof” (Quanta Therapeutics, Inc., priority 2022, dated 2024).

What was measured:
Assay type in all cases: binding
[1] = target: T1, w.t. NRAS/RAF1 (Homo sapiens, UniProt P01111); test: Protein-protein interaction (PPI) HTRF assay NRAS/RAF1; conditions: Table 3; wtNRAS/RAF1
T1 construct: His6-SUMO (N, cleaved yes); made in house; host or cells: E. coli (printed for KRAS and RAF1)
Procedure: (§1) Biotinylated KRAS wt and KRAS G12DNV proteins were expressed and purified in conditions similar to those previously reported (Tran, et al., 2021) (Zhang, et al., 2020). Briefly, KRAS (1-169) proteins were expressed in E. coli at 18° C. with an upstream TEV cleavage site (ENLFYQS (SEQ ID NO: 6)) followed an Avi tag sequence ([…] (SEQ ID NO: 7)). KRAS expression constructs contained both a His6 (SEQ ID NO: 8) and maltose-binding protein (MBP) tags at the N-terminus for Ni-NTA column purification prior to overnight TEV cleavage and MBP column purification. The avi-tagged NRAS expression construct contained both a His6 tag (SEQ ID NO: 8) and SUMO cleavage sige at the N-terminus for Ni-NTA column purification followed by His-ULPi digestion overnight. […]
(§2) When RAS proteins are in the active GTP-bound conformation, they bind the effector protein RAF1 at the N-terminus Ras-binding domain (RBD, residues 52-131) (Tran, et al., 2021). Homogenous time resolved fluorescence (HTRF) was used to monitor the interaction between wt or mutant KRAS and RAF1 or wt NRAS and RAFT. […] The intensity of the fluorescence signal emitted is proportional to binding between the two proteins. […] The fluorescence signal emitted was monitored at 665 nm and 615 nm using an Envision multimode plate reader. […]

[2] = target: T2, KRAS G12V/RAF1 (Homo sapiens, UniProt P01116, G12V); test: Protein-protein interaction (PPI) HTRF assay KRAS G12V/RAF1; conditions: Table 3; KRASG12V/RAF1
T2 construct: His6-MBP (N, cleaved yes); made in house; host or cells: E. coli
T2 sequence (P01116 with tags, fused parts or gaps isoform P01116-2 G12V): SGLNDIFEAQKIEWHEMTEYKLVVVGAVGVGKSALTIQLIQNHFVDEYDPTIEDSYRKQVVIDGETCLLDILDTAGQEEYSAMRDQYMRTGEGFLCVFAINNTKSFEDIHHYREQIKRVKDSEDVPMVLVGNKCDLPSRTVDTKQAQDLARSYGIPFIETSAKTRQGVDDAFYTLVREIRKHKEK
Procedure: as §1, §2

[3] = target: T3, w.t.KRAS/RAF1 (Homo sapiens, UniProt P01116); test: Protein-protein interaction (PPI) HTRF assay w.t.KRAS/RAF1; conditions: Table 3; wtKRAS/RAF1
T3 construct: His6-MBP (N, cleaved yes); made in house; host or cells: E. coli
T3 sequence (P01116 with tags, fused parts or gaps isoform P01116-2): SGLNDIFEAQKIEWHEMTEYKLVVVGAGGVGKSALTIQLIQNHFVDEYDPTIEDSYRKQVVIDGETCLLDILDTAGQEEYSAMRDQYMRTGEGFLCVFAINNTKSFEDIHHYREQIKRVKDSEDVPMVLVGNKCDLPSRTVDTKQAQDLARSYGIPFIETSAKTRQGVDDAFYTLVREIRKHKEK
Procedure: as §1, §2

T1 sequence (P01111 with tags, fused parts or gaps): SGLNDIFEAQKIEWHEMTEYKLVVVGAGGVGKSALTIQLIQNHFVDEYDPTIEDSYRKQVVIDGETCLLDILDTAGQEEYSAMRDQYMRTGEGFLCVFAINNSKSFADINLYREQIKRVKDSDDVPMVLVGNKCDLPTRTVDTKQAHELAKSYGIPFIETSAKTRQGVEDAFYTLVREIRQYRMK

| Compound | IC50 [1] [µM] | IC50 [2] [µM] | IC50 [3] [µM] |
| --- | --- | --- | --- |
| CN(C)C(=O)c1nn2c(c1Cl)CN(c1nc(OC[C@@]34CCCN3C[C@H](F)C4)nc(N3CC4(CCCc5sc(N)c(C#N)c54)C3)c1C#N)CCC2 [Compound 3, 5-[6-(2-amino-3-cyano-spiro[6,7-dihydro-5H-benzothiophene-4,3′-azetidine]-1′-yl)-5-cyano-2-[[(2R,8S)-2-fluoro-1,2,3,5,6,7-hexahydropyrrolizin-8-yl]methoxy]pyrimidin-4-yl]-3-chloro-N,N-dimethyl-4,6,7,8-tetrahydropyrazolo[1,5-a][1,4]diazepine-2-carboxamide] | > 100 | 10 to 100 | – |
| CN(C)C(=O)c1nn2c(c1Cl)CN(c1nc(OC[C@@]34CCCN3C[C@H](F)C4)nc(N3CC4(CCc5sc(N)c(C#N)c54)C3)c1C#N)CCC2 [Compound 2, 5-[6-(2-amino-3-cyano-spiro[5,6-dihydrocyclopenta[b]thiophene-4,3′-azetidine]-1′-yl)-5-cyano-2-[[(2R,8S)-2-fluoro-1,2,3,5,6,7-hexahydropyrrolizin-8-yl]methoxy]pyrimidin-4-yl]-3-chloro-N,N-dimethyl-4,6,7,8-tetrahydropyrazolo[1,5-a][1,4]diazepine-2-carboxamide] | > 100 | 1 to 10 | 1 to 10 |
